Assay results as given in PubChem BioAssay (NCI).
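Assay format: 96-well plates, 48-hour exposure. Definition used: TGI = concentration required for complete inhibition of growth.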

Experiments:
Test in all cases: NCI tumour cell line growth inhibition, 48 h
SN12C renal = system: SN12C renal
UACC-62 melanoma = system: UACC-62 melanoma
DU-145 prostate = system: DU-145 prostate
OVCAR-4 ovarian = system: OVCAR-4 ovarian
SK-OV-3 ovarian = system: SK-OV-3 ovarian
ACHN renal = system: ACHN renal
MDA-MB-435 = system: MDA-MB-435
SW-620 colon = system: SW-620 colon
OVCAR-3 ovarian = system: OVCAR-3 ovarian
SK-MEL-2 melanoma = system: SK-MEL-2 melanoma
COLO 205 colon = system: COLO 205 colon
U251 CNS = system: U251 CNS
HT29 colon = system: HT29 colon

SMILES | TGI (SN12C renal) [µM] | TGI (UACC-62 melanoma) [µM] | TGI (DU-145 prostate) [µM] | TGI (OVCAR-4 ovarian) [µM] | TGI (SK-OV-3 ovarian) [µM] | TGI (ACHN renal) [µM] | TGI (MDA-MB-435) [µM] | TGI (SW-620 colon) [µM] | TGI (OVCAR-3 ovarian) [µM] | TGI (SK-MEL-2 melanoma) [µM] | TGI (COLO 205 colon) [µM] | TGI (U251 CNS) [µM] | TGI (HT29 colon) [µM]
Nc1ccc2c(c1)C(=O)N1CCC[C@H]1C(=O)N2 | > 100 | > 100 | > 100 | > 100 | > 100 | > 100 | > 100 | > 100 | > 100 | > 100 | > 100 | > 100 | > 100
CC(=O)c1ccccc1NP(=O)(c1ccccc1)c1ccccc1 | > 100 | > 100 | > 100 | > 100 | 60.8 | > 100 | > 100 | > 100 | > 100 | > 100 | 34.4 | > 100 | > 100
O=S(=O)(O)CCCc1cccc2ccccc12 | > 100 | > 100 | > 100 | > 100 | > 100 | > 100 | > 100 | > 100 | > 100 | > 100 | > 100 | > 100 | > 100
O=[N+]([O-])c1ccc(CN(CCCl)OCCCl)cc1 | > 100 | > 100 | > 100 | > 100 | > 100 | > 100 | > 100 | > 100 | > 100 | > 100 | > 100 | > 100 | > 100
CC(=O)Nc1ccc(N=Nc2c(O)c(S(=O)(=O)O)cc3cc(S(=O)(=O)O)ccc23)cc1 | > 100 | > 100 | > 100 | > 100 | > 100 | > 100 | > 100 | > 100 | > 100 | > 100 | > 100 | > 100 | > 100
Cc1[nH]c(=O)nc2nc3ccc(Cl)cc3c(NCCNCCO)c12 | 19.8 | 24.3 | 29.4 | 26.2 | 23.9 | 27.4 | 25.7 | 19.6 | 25.2 | 28.3 | 21.6 | 21.2 | 21.9
O=C(N/N=C(\c1ccccc1)c1ccccn1)NC1CCCCC1 | > 100 | > 100 | > 100 | > 100 | > 100 | > 100 | > 100 | > 100 | > 100 | > 100 | > 100 | > 100 | > 100
COC[C@@H](N=CC(C)(C)C)C(C)C | > 100 | > 100 | > 100 | > 100 | > 100 | > 100 | > 100 | > 100 | > 100 | > 100 | > 100 | > 100 | > 100
Cc1ccc(-n2cnc(C(=N)C#N)c2N)cc1 | > 100 | > 100 | > 100 | > 100 | > 100 | > 100 | > 100 | > 100 | > 100 | > 100 | > 100 | > 100 | > 100
C[C@H]1[C@H]2[C@H]3CC[C@@H]4[C@@]5(C)CC[C@H](O)C(C)(C)[C@@H]5CC[C@@]4(C)[C@]3(C)C[C@H](O)[C@@]2(C)C[C@H]2O[C@]21C | 37.8 | 76 | 31.5 | > 100 | 39.3 | 31.1 | 46 | 70.1 | 36.4 | 41.2 | 58.7 | 33.7 | 30.2
CN1C(=O)c2ccccc2OC12C=Cc1c(ccc3ccccc13)O2 (centres undefined) | > 57.1 | > 47.1 | > 45 | > 52.7 | 27.4 | 10.2 | > 24.5 | > 72.6 | 19.1 | 22 | 10.8 | > 34 | 10.3
N#Cc1n[nH]n(-c2ccc(Br)cc2)c1=O | > 100 | > 100 | > 100 | > 100 | > 100 | > 100 | > 100 | > 100 | > 100 | > 100 | > 100 | > 100 | > 100
CCOC1(OCC)C2C=CC1C(COS(=O)(=O)c1ccc(C)cc1)C2COS(=O)(=O)c1ccc(C)cc1 (centres undefined) | > 100 | > 100 | > 100 | 79.2 | > 100 | > 100 | > 100 | > 100 | > 100 | 80.9 | 50.7 | > 100 | > 100
